Assay results taken from ChEMBL document CHEMBL3507680, “University of Dundee, Gates Library screen for HepG2 cell viability”.

Assay: Human HepG2 cell viability assay in 384 well format
Format: toxicity, cell-based
Parameters: dose 125 nL, time 70.5 hour; cytotoxicity at 70.5 h: concentration not given beside the values
Conditions: HepG2 cells, read-out: Inhibition

Structure (SMILES) | cytotoxicity at 70.5 h [%]
COc1ccc(C)c2c1N(C(=O)c1ccc3nnc(C)n3c1)CCC2 | -2.94
CCCN(CC(F)(F)F)C(=O)c1cc(F)cc2[nH]cnc12 | 0.747
CC(C)c1nc(/C=C/c2ccc(O)c(Cl)c2)ncc1C(=O)O | -4.86
CC(C)(C#N)c1ccc(NS(=O)(=O)CC2CCCCO2)cc1 (configuration not stated) | -0.0974
N#Cc1cccc(S(=O)(=O)N2CC(CC(=O)O)c3ccccc32)c1 (configuration not stated) | -4.94
CC(C)c1nc(/C=C/c2cnn(-c3ccccc3)c2)ncc1C(=O)O | -1.23
CNS(=O)(=O)CC(=O)NC(C)Cc1ccccc1Br (configuration not stated) | 3.97
CC(C)c1nnc(NCCS(C)(=O)=O)s1 | -0.429
CNS(=O)(=O)CC(=O)NC(C)Cc1ccc(Br)cc1 (configuration not stated) | 2.68
CNS(=O)(=O)CC(=O)NC(C)Cc1ccc(-c2ccccc2)cc1 (configuration not stated) | 1.33
CCNC(=O)NC1CN(Cc2ccncc2Cl)C[C@@H]1OC (some centres not stated) | 28.4
Cc1ccc(-c2ncc(CNc3cnccc3CO)s2)cc1 | 3.65
OCc1ccncc1NCc1cnc(-c2ccccn2)s1 | 0.118
CN(C)C(=O)Cc1ccccc1NCc1cccc2cccnc12 | 57.4
CCN(Cc1noc(C2CC2)n1)Cc1ccc(C#N)cc1F | 1.6
Cc1cnn(CCNCc2c(C)nn(Cc3ccccc3)c2C)c1 | 23.6
COCCN(CCOC)C(=O)c1cccc(Cn2nc(C)cc2C)c1 | 0.115
CCN(CCC(=O)OC)C(=O)c1cc(F)cc2[nH]cnc12 | 0.0493
N#Cc1ccc(S(=O)(=O)N2CC(CC(=O)O)c3ccccc32)cc1 (configuration not stated) | -3.42
CNS(=O)(=O)CC(=O)NC(C)Cc1cccc(Cl)c1 (configuration not stated) | -2.05
CCN(Cc1noc(C(C)(C)C)n1)Cc1ccc(C#N)cc1F | -6.26
Cc1c(C(=O)NS(=O)(=O)c2ccsc2)cnn1CC(C)C | 4.87
CC(=O)NC(CC(=O)Nc1nc(C)c(C)s1)c1ccccc1 (configuration not stated) | 0.551
CC(Cn1cccn1)NC(=O)N(C)Cc1ccsc1 (configuration not stated) | -16.6

Structure (SMILES) | cytotoxicity at 70.5 h [%]
CC(Cn1ccnc1)NC(=O)N(C)Cc1ccsc1 (configuration not stated) | -27.1
O=C1CCCN1c1cccc(CNCc2nc(-c3ccco3)no2)c1 | -17.4
CNC(=O)NC(=O)CCSCc1cc(Cl)cc2cccnc12 | -16.5
Cc1cc(C)cc(OCC(=O)N2CCCN(CC(N)=O)CC2)c1 | -16.4
NC(=O)NC(=O)CCSCc1cc(F)cc2cccnc12 | -29.1
CC(C)NC(=O)N(C)C1CCN(c2ccccc2Cl)C1=O (configuration not stated) | -21.1
COCc1noc(-c2cc(Cl)c3c(c2)OCO3)n1 | -19.3
Cc1nccn1CCCNc1nccnc1C#N | 44.8
COc1ccccc1S(=O)(=O)Nc1cnc(O)cc1C | -10.5
CCN(CC)C(=O)COc1ccnc2cc(OC)ccc12 | -19.4
CC(C)c1nsc(N2CCS(=O)(=O)CC2)n1 | -22.3
Clc1cnc(NCc2ccccc2N2CCOCC2)nc1 | -14.4
CN(Cc1nccn1C)C(CO)c1cccc(Br)c1 (configuration not stated) | -28.6
CC(Cn1cccn1)NCc1cnc(N2CCCC2)nc1 (configuration not stated) | -3.66
CCC(C)(COc1ncccc1Cl)NCC(=O)Nc1ccc(Br)cn1 (configuration not stated) | 38.6
O=S(=O)(CCNCCn1cccn1)c1ccccc1 | -18.7
CCC(C)(COc1ncccc1Cl)NCC(=O)NCC(C)C (configuration not stated) | -30.2
COc1cc(CNC(=O)NCCCF)cc(Br)c1OC | -2.35
CCc1nc(NS(=O)(=O)c2ccc(C)cc2Cl)no1 | -4.3
CCc1nc(NS(=O)(=O)c2cc(C)ccc2F)no1 | -8.12
COc1cccc(S(=O)(=O)CCN2CCCN(C(C)=O)CC2)c1 | 0.259
CC(=O)c1ccccc1C(=O)NCC1(CO)CC1 | 4.58
Cc1nc(C)n(CC2CCCCN2CCCS(=O)(=O)N(C)C)n1 (configuration not stated) | 3.2
Cn1cc(S(=O)(=O)N2CCCC2CC(=O)c2cccs2)cn1 (configuration not stated) | -9.81

Structure (SMILES) | cytotoxicity at 70.5 h [%]
CC(C)CCC(C)NC(=O)c1ccc(OCC(N)=O)cc1 (configuration not stated) | -3.72
CCC(CNC(=O)c1ccc(=O)[nH]n1)N1CCc2ccccc2C1 (configuration not stated) | -10.3
Cc1nc(CNC(=O)NCC(O)c2cccc(Cl)c2)cs1 (configuration not stated) | 5.52
CCN(Cc1ccco1)C(=O)NCc1nnc2n1CCC2 | -13.2
c1ccc(-c2noc(CN3CCC(c4ccn[nH]4)CC3)n2)cc1 | -14.9
CC(=O)N1CCCN(C(=O)c2oc(Br)cc2C)CC1 | -3.38
Cc1ccc(C(O)CNC(=O)NCc2nc(C)cs2)cc1 (configuration not stated) | -2.07
CC(=O)c1cccc(OCCCC(=O)N(C)CCc2ccncc2)c1 | -10.1
CC(CNC(=O)c1cccnc1Oc1cccnc1)N(C)C (configuration not stated) | -8.64
O=S(=O)(CCNCc1ccc2c(c1)CCO2)N1CCOCC1 | 12.8
O=C(NCCOc1ccc(F)c(F)c1)NCc1cccc(CO)c1 | -9.23
CN(Cc1ccco1)Cc1ccccc1CNC(=O)c1ccncc1 | -8
CN(Cc1ccco1)Cc1ccccc1CNC(=O)c1ccc[nH]1 | -9.87
COc1ccc(OCC(=O)NS(=O)(=O)c2cc(F)ccc2F)cc1 | 20.8
Cc1c(I)cccc1C(=O)NCC1(CO)CC1 | -7.8
COc1ccc(C(CO)NC(=O)Nc2cccnc2)cc1 (configuration not stated) | 12.6
CC(CNC(=O)c1ccccc1Oc1cccnc1)N(C)C (configuration not stated) | -6.12
Cc1nc(C)n(CC2CCCCN2CCS(C)(=O)=O)n1 (configuration not stated) | 12.7
CCc1noc(CNc2cc(F)ccc2OCC2CCCO2)n1 (configuration not stated) | -6.07
CCOC(C)c1nc(CN2CCN(c3nccc(C)n3)CC2)cs1 (configuration not stated) | -8.29
Fc1cc(CNCc2ccc3c(c2)CCO3)ccc1N1CCOCC1 | -6.5
Cc1ccc(-c2nc(CN3CCOC(Cn4cccn4)C3)cs2)o1 (configuration not stated) | -13.3
COc1ccc(F)cc1C(C)NC(=O)Nc1nnc(C)s1 (configuration not stated) | -12.6
CCn1cc(C(=O)NC2CCN(S(C)(=O)=O)CC2)c2ccccc21 | -9.93

Structure (SMILES) | cytotoxicity at 70.5 h [%]
CC(=O)NCCNC(=O)c1cnc(-c2ccccc2)nc1 | -17.1
Cc1cc(CNC(=O)C2CCCCN2C(=O)OC(C)(C)C)no1 (configuration not stated) | -10.1
N#Cc1ccnc(N2CCN(Cc3cccc(F)c3)CC2)c1 | -6.08
CC(C)c1cc(C(=O)N2CCN(Cc3ccsc3)CC2)n[nH]1 | -9.01
Cc1ccc(S(=O)(=O)N2CSCC2C(=O)N(C)C2CC2)cc1Cl (configuration not stated) | -12.2
Cc1noc(C)c1CN1CCN(C(=O)Cn2cncn2)CC1 | -5.67
CCOC(=O)NC(CNC(=O)c1ncccn1)CC(C)C (configuration not stated) | -7.23
CCOc1cccc(NS(=O)(=O)c2cc(C)c(C(=O)O)s2)c1 | 8.89
CCN1CCN(c2ccc(F)cc2C(C)NCc2ccncc2)CC1 (configuration not stated) | -1.51
Cn1cc(N2CCC(NC(=O)c3c(F)cccc3F)C2=O)cn1 (configuration not stated) | -2.48
CCC(CC)c1cc(CNC(=O)N2CCOCC2CC)on1 (configuration not stated) | -10.6
CN(Cc1ccncc1)C(=O)Nc1cnn(CC2CCCO2)c1 (configuration not stated) | -3.42
CN(C)c1ccc(CCCNC(=O)Nc2ccc(C#N)cc2)cc1 | 1.4
CC(C)(C)c1nnc(CN2CCN(S(C)(=O)=O)CC2)o1 | -2.04
Cc1ccc(CNC(=O)N2CCCCC2CCNS(C)(=O)=O)cc1 (configuration not stated) | -8.15
NC(=O)C1CCN(C(=O)NCc2ccccc2Cn2cncn2)CC1 | -3.83
O=C(NCCNC(=O)N1CCC(c2ccccc2)C1)C1CC1 (configuration not stated) | -6.87
CC(C)CS(=O)(=O)CC(=O)N(C)Cc1ccc(OC(F)F)cc1 | -3.66
O=C(NCCCNCC1CNc2ccnn2C1)c1ccccc1 (configuration not stated) | -12
O=C(c1cccnc1-n1cccn1)N1CCN(CC2CC2)CC1 | -11
CC(C(=O)NCc1ccnc(Oc2ccc(F)cc2)c1)n1cncn1 (configuration not stated) | -9.56
Cc1nc(NC(=O)CN2CCc3c(nc(C(C)C)n3C)C2)sc1C | -7.61
CC(C)c1nc(CN(C)CC2CCN(CCO)CC2)no1 | -5.69
CCOc1cccc(C(C)NC(=O)N2CCC(C(N)=O)CC2)c1 (configuration not stated) | -8.18

Structure (SMILES) | cytotoxicity at 70.5 h [%]
CC(C)NC(=O)COc1nc(C(C)C)no1 | 18
O=C(c1ccsc1)N1CCc2ncc(Cn3cncn3)n2CC1 | -14.2
C[C@@H]1CN(C(=O)[C@H]2CCCO2)C[C@]12CCN(c1ccsc1)C2=O | -11.7
CC(=O)N1CCCC2(C1)CN(C(=O)c1ccncc1)CCO2 (configuration not stated) | -15.7
CC(=O)N1CCCC2(C1)CN(C(=O)Cc1ccccc1)CCO2 (configuration not stated) | -15.1
C[C@@H]1CN(C(=O)c2cccc(F)c2)C[C@]12CCN(c1ccsc1)C2=O | -16.2
Cc1nc(NCC2CC2)nc2c1COCC21CCN(S(=O)(=O)C2CC2)C1 (configuration not stated) | -15.4
C[C@H]1CN(C(=O)c2cscn2)C[C@@]12CCN(c1ccsc1)C2=O | -14.4
COCCC1COC2(CCN(C(=O)c3cccn3C)CC2)C1 (configuration not stated) | -14.7
O=C(c1ccncn1)N1CCC[C@]2(C[C@H](OCC3CC3)CO2)C1 | -15.2
CCO[C@@H]1CCN(C(=O)c2ccnnc2)[C@@H]1Cc1cnn(C)c1 | 3.33
CO[C@@H]1CCN(C(=O)c2cnoc2C)[C@H]1Cc1ccccc1 | 2.59
CN1CCN(c2ncnc3c2CCN(C(=O)c2cccn2C)CC3)CC1 | 6.05
COCCN1C2(CCN(Cc3nccs3)C2)c2ccccc2S1(=O)=O (configuration not stated) | -12.7
CN(C)CC(=O)N1CCC2(CC1)CN(c1ncccn1)CCO2 | 5.39
N#Cc1cccc(C(=O)N2CC[C@H]3[C@H]2CCN3CC2CCOCC2)c1 | 26.3
CN(C)[C@@H]1CCN(C(=O)Cc2ccc(F)cc2)[C@H]1Cc1ccncc1 | -15.9
O=C(c1cccnc1)N1CCn2cc(CN3CCCC3)nc2C1 | -6.71
Cc1noc(C)c1CN1CCC[C@]2(C[C@@H](Oc3ccccn3)CO2)C1 | -0.591
CN(Cc1ccco1)[C@@H]1CN(CC2CCOCC2)C[C@@H]2CCCO[C@@H]21 | 4.38
CN(Cc1cccnc1)C1CC2(CCN(Cc3cccnc3)CC2)C1 | -13.8
